Measurements: patent US20190274334A1 (MARS, INCORPORATED, priority 2016, published 2019)
“And” between values parts separate entries of the source, which are not always exact repeats. Equal values may be shown once. Read-outs that look alike come from different tables or passages of the source.

Key:
feline CaSR (f:CaSR) [1] = target: T1, feline CaSR (f:CaSR) (Felis catus, UniProt A0ABI7YY68); assay: cell-based; assay type: cell-based
feline CaSR (f:CaSR) [2] = target: T1, feline CaSR (f:CaSR); assay: in vitro PAM testing of amino acids on feline CaSR, single-injection protocol, shift of calcium EC50; assay type: cell-based; conditions: for EC50: CaCl2 alone, control of the same experiment, read-out: EC50 of Ca^2+ before the shift (without amino acid)
Protocol: Methods: HEK293TRex/nat-Clytin cells that inducibly express a feline CaSR (f:CaSR) transgene construct was used to screen 30 amino acids to identify compounds that modulate f:CaSR activity. […] The HEK293 cells were seeded at 10,000 cells/well in 384 MTP. 24 hours after cell seeding, cells were loaded with 10 μm coelenterazine in an assay buffer (20 μL/well) for 4 h at room temperature. […] CaCl2 alone was used as a control.
PAM mode (single-injection): Test compound (6× concentrated) and CaCl2 (6× concentrated) were directly mixed 1:1 on the compound plate to get a 3× concentrated working solution of each test compound and control. 10 μl/well of the test compound or control working mixture was injected, and luminescence (i.e., PAM activity) was measured.

[3] = test system: feline umami (T1R1/T1R3) receptor; conditions: cited from earlier work
Human CaSR = target: T2, Human CaSR (Homo sapiens, UniProt P41180); conditions: Yes/No; cited from earlier work
T2 sequence (P41180 20-1078): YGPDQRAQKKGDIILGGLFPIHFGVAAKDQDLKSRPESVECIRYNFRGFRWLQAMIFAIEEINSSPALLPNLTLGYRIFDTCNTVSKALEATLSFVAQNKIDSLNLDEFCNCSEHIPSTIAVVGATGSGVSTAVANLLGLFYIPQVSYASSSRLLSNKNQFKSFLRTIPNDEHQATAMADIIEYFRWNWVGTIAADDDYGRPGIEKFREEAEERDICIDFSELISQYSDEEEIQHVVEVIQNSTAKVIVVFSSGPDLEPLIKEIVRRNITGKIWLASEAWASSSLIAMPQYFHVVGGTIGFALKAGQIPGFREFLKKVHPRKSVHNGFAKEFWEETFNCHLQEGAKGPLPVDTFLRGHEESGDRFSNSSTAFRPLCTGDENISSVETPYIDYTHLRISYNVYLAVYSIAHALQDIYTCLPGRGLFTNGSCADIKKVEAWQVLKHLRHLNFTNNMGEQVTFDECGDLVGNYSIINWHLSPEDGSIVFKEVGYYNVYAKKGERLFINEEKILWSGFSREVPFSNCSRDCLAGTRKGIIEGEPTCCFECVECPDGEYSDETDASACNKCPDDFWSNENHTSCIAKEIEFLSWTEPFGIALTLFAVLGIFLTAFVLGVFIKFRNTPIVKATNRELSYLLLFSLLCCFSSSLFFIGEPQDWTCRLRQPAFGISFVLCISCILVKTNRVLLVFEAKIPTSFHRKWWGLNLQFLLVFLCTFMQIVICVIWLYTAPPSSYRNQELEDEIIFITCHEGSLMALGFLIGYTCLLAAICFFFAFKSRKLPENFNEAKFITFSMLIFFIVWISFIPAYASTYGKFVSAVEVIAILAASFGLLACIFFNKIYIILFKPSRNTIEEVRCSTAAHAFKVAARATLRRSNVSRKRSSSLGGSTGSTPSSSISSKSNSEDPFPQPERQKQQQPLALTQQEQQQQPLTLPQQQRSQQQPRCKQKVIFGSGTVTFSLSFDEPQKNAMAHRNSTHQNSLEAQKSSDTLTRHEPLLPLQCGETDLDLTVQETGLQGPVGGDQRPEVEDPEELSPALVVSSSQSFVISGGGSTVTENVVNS

[4] = agonist mode, read-out: EC50 (Agonist)
[5] = double-injection protocol, agonist mode and PAM mode
[6] = PAM mode, CaCl2 injected at EC20, read-out: EC50 (PAM)

T1 sequence (A0ABI7YY68 entry or part of it): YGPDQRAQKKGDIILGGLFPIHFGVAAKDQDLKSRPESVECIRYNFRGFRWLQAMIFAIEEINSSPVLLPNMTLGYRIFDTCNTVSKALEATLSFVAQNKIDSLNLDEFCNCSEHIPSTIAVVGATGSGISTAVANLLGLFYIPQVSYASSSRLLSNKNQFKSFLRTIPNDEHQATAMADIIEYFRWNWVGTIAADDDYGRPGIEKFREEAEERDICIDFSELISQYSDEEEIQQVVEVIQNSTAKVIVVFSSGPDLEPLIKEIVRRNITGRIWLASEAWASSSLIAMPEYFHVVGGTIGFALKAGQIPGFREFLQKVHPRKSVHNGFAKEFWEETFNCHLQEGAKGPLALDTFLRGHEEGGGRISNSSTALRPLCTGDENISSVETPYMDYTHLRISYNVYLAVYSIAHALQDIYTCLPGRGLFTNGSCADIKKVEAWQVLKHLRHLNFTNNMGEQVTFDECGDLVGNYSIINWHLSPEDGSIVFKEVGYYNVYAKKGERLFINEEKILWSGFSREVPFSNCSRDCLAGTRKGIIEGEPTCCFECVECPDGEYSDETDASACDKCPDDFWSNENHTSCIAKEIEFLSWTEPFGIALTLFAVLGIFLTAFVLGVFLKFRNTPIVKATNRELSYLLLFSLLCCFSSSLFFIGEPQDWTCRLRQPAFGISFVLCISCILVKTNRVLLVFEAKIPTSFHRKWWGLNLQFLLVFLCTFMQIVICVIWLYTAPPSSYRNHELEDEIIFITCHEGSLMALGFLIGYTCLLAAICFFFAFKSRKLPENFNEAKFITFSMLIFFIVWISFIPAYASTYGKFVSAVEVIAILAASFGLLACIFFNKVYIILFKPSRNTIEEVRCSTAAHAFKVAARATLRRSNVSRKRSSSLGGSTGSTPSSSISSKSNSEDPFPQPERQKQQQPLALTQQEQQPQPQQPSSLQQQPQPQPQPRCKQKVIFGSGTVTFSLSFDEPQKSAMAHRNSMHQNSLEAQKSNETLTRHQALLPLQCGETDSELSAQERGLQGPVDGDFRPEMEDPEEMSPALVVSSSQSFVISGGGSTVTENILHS

Compound: N[C@@H](Cc1c[nH]c2ccccc12)C(=O)O [L-Tryptophan]
- Feline CaSR agonist (feline CaSR (f:CaSR) [1]; Yes/No): do not activate
- Activity Type (feline CaSR (f:CaSR) [2]; single-injection PAM mode): PAMs and PAM
- Comments: Umami-active for cats [3]: umami-active

Compound: C[C@H](N)C(=O)O [L-alanine]
- Human CaSR agonist (Human CaSR): Yes
- Feline CaSR agonist (feline CaSR (f:CaSR) [1]; Yes/No): do not activate and No
- Comments: Umami-active for cats [3]: Umami-active

Compound: N[C@@H](Cc1ccccc1)C(=O)O [L-Phenylalanine]
- Feline CaSR agonist (feline CaSR (f:CaSR) [1]; Yes/No): do not activate
- Activity Type (feline CaSR (f:CaSR) [2]; single-injection PAM mode): PAMs and PAM
- Comments: Umami-active for cats [3]: umami-active

Compound: NCCCC[C@H](N)C(=O)O [L-Lysine]
- Activity Type (feline CaSR (f:CaSR) [2]): PAM EC50 of Ca^2+ moved from 1.5 mM to 0.72 mM in presence of 10 mM L-Lysine

Compound: N=C(N)NCCC[C@H](N)C(=O)O [L-Arginine]
- Activity Type (feline CaSR (f:CaSR) [2]): PAM EC50 of Ca^2+ moved from 1.5 mM to 0.72 mM in presence of 10 mM L-Arginine

Compound: NCCCCN [Putrescine]
- Human CaSR agonist (Human CaSR): Yes
- Feline CaSR agonist (feline CaSR (f:CaSR) [1]): No

Compound: [Ca] [Calcium]
- EC50 (feline CaSR (f:CaSR) [1]; [4]): 1620 µM
- Activity Type (feline CaSR (f:CaSR) [1]; [5]): Agonist
- EC50 (feline CaSR (f:CaSR) [2]; listed as Ca2^+): 1300 µM
- EC50 (feline CaSR (f:CaSR) [2]; listed as Ca^2+): 1300 µM and 1500 µM

Compound: N[C@@H](Cc1c[nH]cn1)C(=O)O [L-histidine]
- Human CaSR agonist (Human CaSR): Yes
- Feline CaSR agonist (feline CaSR (f:CaSR) [1]; Yes/No): do not activate and No
- Comments: Umami-active for cats [3]: Umami-active

Compound: NC(=O)[C@@H](N)CCC(=O)O [L-Isoglutamine]
- Activity Type (feline CaSR (f:CaSR) [1]; [5]): Agonist

Compound: N[C@@H](CCC(=O)N[C@@H](CCC(=O)N[C@@H](CCC(=O)O)C(=O)O)C(=O)O)C(=O)O [H-Glu(Glu(Glu-OH)—OH)—OH]
- Activity Type (feline CaSR (f:CaSR) [1]): Agonist EC50 2.35 mM
- EC50 (feline CaSR (f:CaSR) [1]; [4]): 2350 µM

Compound: NC[C@H]1O[C@H](O[C@H]2[C@H](O[C@@H]3O[C@H](CO)[C@@H](O)[C@H]3O)[C@@H](O)[C@H](N)C[C@@H]2N)[C@H](N)[C@@H](O)[C@@H]1O [Ribostamycin, reference compound]
- Activity Type (feline CaSR (f:CaSR) [1]; [5]): Agonist

Compound: Tobramycin [reference compound]
- Activity Type (feline CaSR (f:CaSR) [1]; [5]): PAM

Compound: Terbium
- EC50 (feline CaSR (f:CaSR) [1]; [4]): 175 µM
- Activity Type (feline CaSR (f:CaSR) [1]; [5]): Agonist

Compound: CC(NCCC(Cc1ccccc1)c1ccco1)c1ccccc1 (stereo not drawn) [3-(furan-2-yl)-4-phenyl-N-(1-phenylethyl)butan-1-amine]
- EC50 (feline CaSR (f:CaSR) [1]; [6]): 0.673 µM
- Activity Type (feline CaSR (f:CaSR) [1]; [5]): PAM

Compound: NC(CCC(=O)NC(Cc1c[nH]c2ccccc12)C(=O)O)C(=O)O [γ-D-Glu-Trp, H-gamma-D-Glu-Trp-OH]
- EC50 (feline CaSR (f:CaSR) [1]; [4]): 4200 µM
- Activity Type (feline CaSR (f:CaSR) [1]; [5]): Agonist

Compound: Poly-L-lysine
- Activity Type (feline CaSR (f:CaSR) [1]): Agonist

Compound: CN[C@@H]1[C@@H](O)[C@@H](O[C@@H]2[C@@H](O)[C@H](O[C@H]3OC(CN)=CC[C@H]3N)[C@@H](N)C[C@H]2N)OC[C@]1(C)O [Sisomicin, reference compound]
- Activity Type (feline CaSR (f:CaSR) [1]; [5]): Agonist

Compound: CC(C)CCC(CCNC(C)c1ccc(Cl)cc1)c1ccc(OC(C)C)cc1 (stereo not drawn) [N-(1-(4-chlorophenyl)ethyl)-3-(4-isopropoxyphenyl)-6-methylheptan-1-amine]
- EC50 (feline CaSR (f:CaSR) [1]; [6]): 172 µM
- Activity Type (feline CaSR (f:CaSR) [1]; [5]): PAM

Compound: N[C@@H](CCC(=O)NCC(=O)O)C(=O)O [H-Glu(Gly-OH)—OH]
- Activity Type (feline CaSR (f:CaSR) [1]; [5]): Agonist

Compound: N[C@@H](Cc1ccc(OP(=O)(O)O)cc1)C(=O)O [O-phospho-L-tyrosine]
- Activity Type (feline CaSR (f:CaSR) [1]; [5]): Agonist

Compound: NC[C@@H]1O[C@H](O[C@H]2[C@@H](O)[C@H](O[C@@H]3[C@@H](O)[C@H](N)C[C@H](N)[C@H]3O[C@H]3O[C@H](CO)[C@@H](O)[C@H](O)[C@H]3N)O[C@@H]2CO)[C@H](N)[C@@H](O)[C@@H]1O [Paromomycin, reference compound]
- Activity Type (feline CaSR (f:CaSR) [1]; [5]): Agonist

Compound: NC(CCCCC(=O)O)C(=O)O (racemic) [(±)-2-Aminopimelic acid]
- Activity Type (feline CaSR (f:CaSR) [1]): Agonist

Compound: COc1ccccc1C(CCNC(C)c1ccc(Cl)cc1)c1ccco1 (stereo not drawn) [N-(1-(4-chlorophenyl)ethyl)-3-(furan-2-yl)-3-(2-methoxyphenyl)propan-1-amine]
- EC50 (feline CaSR (f:CaSR) [1]; [6]): 1.41 µM
- Activity Type (feline CaSR (f:CaSR) [1]; [5]): PAM

Compound: c1ccc(C2CCN(C3CCCc4ccccc43)C2)cc1 (stereo not drawn) [3-phenyl-1-(1,2,3,4-tetrahydronaphthalen-1-yl)pyrrolidine]
- Activity Type (feline CaSR (f:CaSR) [1]; [5]): PAM

Compound: CC(=O)N1C=Cc2ccccc2C1CC(=O)NC(C)c1cccc(Br)c1 (stereo not drawn) [2-(2-acetyl-1,2-dihydroisoquinolin-1-yl)-N-(1-(3-bromophenyl)ethyl)acetamide]
- EC50 (feline CaSR (f:CaSR) [1]; [6]): 12.1 µM
- Activity Type (feline CaSR (f:CaSR) [1]; [5]): PAM

Compound: CC(C)C[C@H](NC(=O)CC[C@H](N)C(=O)O)C(=O)O [H-Glu(Leu-OH)—OH]
- Activity Type (feline CaSR (f:CaSR) [1]; [5]): Agonist

Compound: CC(NCC1Cc2ccccc2O1)c1ccc2ccccc2n1 (stereo not drawn) [N-((2,3-dihydrobenzofuran-2-yl)methyl)-1-(quinolin-2-yl)ethanamine]
- EC50 (feline CaSR (f:CaSR) [1]; [6]): 9.01 µM
- Activity Type (feline CaSR (f:CaSR) [1]; [5]): PAM

Compound: CSCC[C@H](NC(=O)CC[C@H](N)C(=O)O)C(=O)O [H-Glu(Met-OH)—OH]
- Activity Type (feline CaSR (f:CaSR) [1]; [5]): Agonist

Compound: C[C@H](NC(=O)CC[C@H](N)C(=O)O)C(=O)O [γ-Glu-Ala, L-gamma-Glutamyl-L-alanine]
- Activity Type (feline CaSR (f:CaSR) [1]; [5]): Agonist

Compound: N[C@@H](CC(=O)NCC(=O)O)C(=O)O [H-Asp(Gly-OH)—OH]
- Activity Type (feline CaSR (f:CaSR) [1]; [5]): Agonist

Compound: C[C@@H](NCc1cc2ccccc2[nH]1)c1cccc2ccccc12 [Calindol, reference compound]
- Activity Type (feline CaSR (f:CaSR) [1]; [5]): PAM
